This is an account of results in US4782073A, “Amides of [(5,6-dichloro-3-oxo-9-alpha-substituted-2,3,9,9-alpha-tetrahydrofluoren -7-yl-oxyl]acetic acids, and pharmaceutical compositions thereof” (Merck & Co., Inc., priority 1986, dated 1988).

A short description of data set [1]: Distribution between octanol and aqueous buffer at pH 7.4. Format: physicochemical. Here is the method: a. Distribution between octanol and aqueous buffer at pH = 7.4 were
determined as described by R. A. Sherrer and S. M. Howard, J. Med. Chem.

A short description of another data set: pKa. Format: physicochemical. To be noted: read-out: pV-a.
The nature of data set [2]: Protein binding (bovine serum albumin). Format: in vitro ADME. The following applies: 4 × 10^-4 M bovine serum albumin. An excerpt: b. % Bound using 4 × 10^-4 M bovine serum albumin.
The subject of data set [3] is cat cerebrocortical tissue slices. Put plainly: in vitro cat cerebrocortical tissue slice assay (inhibition of HCO3- stimulated swelling). Format: cell-based. To be noted: Felis catus, 1 h, compounds dissolved as sodium salts, 60 min incubation at 37° C, read-out: I50, concentration giving 50% inhibition of swelling. From the text:
The (1) in vitro cat cerebrocortical tissue slice assay, (2) the in vitro primary rat astrocyte culture assay and (3) the in vivo cat head injury assay. The first assay, the in vitro cat cerebrocortical tissue slice assay has been described by Marshall, L. F.; Shapiro, H. M.; Smith, R. W. In "Seminars in Neurological Surgery: Neural Trauma"; Popp, A. J.; Bourke, R. S.; Nelson, L. R.; Kimelberg, H, K,. Eds.; Raven Press: New York, 1979; p 347, by Bourke, R. S.; Kimelberg, H, K.; Daze, M. A. in Brain Res. 1978, 154, 196, and by Bourke, R. S.; Kimelberg, H. K,; Nelson, L. R. in Brain Res. 1976, 105, 309. This method constitutes a rapid and accurate method of determining the intrinsic chloride inhibitory properties of the compounds of the invention in the target tissue.
Using the in vitro cat cerebrocortical tissue slice assay, described in Example 1, compounds of the present invention can be tested for activity. This test provides the principal in vitro evaluation and consists of a determination of concentration vs. response curve. […]
Following the 60 minute incubation period, tissue slices were separated from incubation medium by filtration, reweighed, and homogenized in 1 N HClO4 (10% w/v) for electrolyte analysis. […] Control slice swelling is expressed as microliters per gram initial preswelling fresh weight. […]

A further data set relates to astroglial edema. To be noted: in vitro assay, J. Med. Chem. 25, 567 (1982); cited from earlier work.
Data set [4] has as its system clinical cases of head injury. The following applies: J. Med. Chem. 25, 567 (1982); cited from earlier work.
Data set [5] deals with animals receiving experimental in vivo head injury. The following applies: in vivo head injury assay, J. Med. Chem. 25, 567 (1982); cited from earlier work.

For `CCC[C@]12CCC(=O)C=C1c1c(cc(OCC(=O)N[C@@H](Cc3ccccc3)C(=O)O)c(Cl)c1Cl)C2`, the log distribution coefficient (logD) in data set [1] was 2. In addition, the pKa in “pKa” was found to be 4.58. The compound also showed a fraction unbound in data set [2] of 0.057.
Consider `CCC[C@]12CCC(=O)C=C1c1c(cc(OCC(=O)NS(=O)(=O)CC)c(Cl)c1Cl)C2` [SO2 C2 H5], for which, in data set [1], the pH-dependent lipophilicity (logD) was 1.99. Further, in “pKa”, the pKa was 4.1. For the same compound, in data set [3], the IC50 came out at 10 nM.
Compound `CCC[C@]12CCC(=O)C=C1c1c(cc(OCC(=O)NC#N)c(Cl)c1Cl)C2` [Example 5, R(+)-N-Cyano-[(5,6-dichloro-3-oxo-9a-propyl-2,3,9,9a-tetrahydro-1H-fluoren-77-yl)oxy]acetamide] gave a pH-dependent lipophilicity (logD) in data set [1] of 1.99. Besides, the pKa in the data set “pKa” stood at 3.65. In data set [2], this compound showed a free fraction (fraction unbound) of 0.016.
In data set [1], `CCC[C@]12CCC(=O)C=C1c1c(cc(OCC(=O)N[C@H](C(=O)O)C(C)C)c(Cl)c1Cl)C2` had a logD of 2. Also, the pKa in “pKa” was 4.6. In data set [2], this compound gave a fraction unbound of 0.03.
Regarding `CCC[C@]12CCC(=O)C=C1c1c(cc(OCC(=O)N[C@@H](Cc3ccc(O)cc3)C(=O)O)c(Cl)c1Cl)C2`, in data set [1], the logD is 1.99. In addition, in “pKa”, the pKa worked out at 4.12. Besides, the fraction unbound in data set [2] was 0.022.
For the compound `CCC[C@]12CCC(=O)C=C1c1c(cc(OCC(=O)N[C@@H](Cc3c[nH]cn3)C(=O)O)c(Cl)c1Cl)C2`, the logD in data set [1] is 1.95. The pKa in the data set “pKa” was 6.9. In addition, the fraction unbound in data set [2] is 0.079.
Taken in the same sequence, the figures for `CCC[C@]12CCC(=O)C=C1c1c(cc(OCC(=O)Nc3nnn[nH]3)c(Cl)c1Cl)C2` were 1.96, 3.78 and 0.019.
In data set [1], `CCC[C@]12CCC(=O)C=C1c1c(cc(OCC(=O)N[C@@H](CO)C(=O)O)c(Cl)c1Cl)C2` gave a logD of 1.91. In addition, in the data set “pKa”, the pKa is 4.1. This compound had a fraction unbound in data set [2] of 0.024.
For `CCC[C@]12CCC(=O)C=C1c1c(cc(OCC(=O)NS(C)(=O)=O)c(Cl)c1Cl)C2` [Example 4, R(+)-N-Methylsulfonyl-[(5,6-dichloro-3-oxo-9a-propyl-2,3,9,9a-tetrahydro-1H-fluoren-7-yl)oxy]acetamide], in data set [1], the pH-dependent lipophilicity (logD) was 1.97. The pKa in the data set “pKa” is 4.25. In addition, the fraction unbound in data set [2] is 0.028. Also, in data set [3], the IC50 came to 20 nM.
Turning to `C=C(CC)C(=O)c1ccc(OCC(=O)O)c(Cl)c1Cl` [ethacrynic acid], the activity in vitro result in the data set on astroglial edema was “exhibited activity”. In addition, the “reduction of mortality in clinical cases of head injury” value in data set [4] was “effective in reducing mortality”. For the same compound, in data set [5], the activity in vivo entry was “exhibited activity”.

Usually logD stands for lipophilicity at a set pH, counting ionised and neutral species. A word on the fraction unbound: it is the share of the substance not bound to proteins or other matrix. Lower therefore signals little free substance.
